Experimental data from patent EP4389749A1, “SUBSTITUTED 3,7-DIHYDRO-1H-PURINE-2,6-DIONES AND USE THEREOF” (invIOs GmbH, priority 2022, dated 2024).

Tests used:
[1] = test system: CD8+ T-cells; assay: Immunostimulation assay with anti-CD3/28 stimulated T-cells, CD69 expression by flow cytometry; assay type: cell-based, human; conditions: T-cell; purified human CD4+ and CD8+ T-cells, 1 µg/ml anti-CD3, 1 µg/ml anti-CD28, 16 hours, surface FACS; read-out: EC50 CD8+
Method in brief: (§1)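 Human CD4+/CD8+ T-cells purified from buffy-coat PBMCs were stimulated with 1 µg/ml anti-CD3 and 1 µg/ml anti-CD28 plus compound (0.001–30 µM) for 16 h at 37 °C. CD69 measured by flow cytometry; DMSO set minimal, CD3/28 Dynabeads maximal activation; EC50 by variable-slope fit.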

[2] = test system: CD4+ T-cells; assay: as above; assay type: cell-based, human; conditions: T-cell; purified human CD4+ and CD8+ T-cells, 1 µg/ml anti-CD3, 1 µg/ml anti-CD28, 16 hours, surface FACS; read-out: EC50 CD4+
Method in brief: as §1

EC50 [1] | EC50 [2] | Compound
100 to 500 nM | 100 to 500 nM | Cn1c(-c2ccc(Oc3ccc(Cl)cc3)c(Cl)c2)nc2c1c(=O)[nH]c(=O)n2CC(O)C(F)(F)F (stereo not shown) [Compound 153, 8-(3-chloro-4-(4-chlorophenoxy)phenyl)-7-methyl-3-(3,3,3-trifluoro-2-hydroxypropyl)-3,7-dihydro-1H-purine-2,6-dione]
1000 to 5000 nM | 1000 to 5000 nM | CC(O)Cn1c(=O)[nH]c(=O)c2c1nc(-c1ccc(Oc3ccc(OC(F)(F)F)cc3)c(C(F)(F)F)c1)n2C (stereo not shown) [Compound 155, 3-(2-hydroxypropyl)-7-methyl-8-(4-(4-(trifluoromethoxy)phenoxy)-3-(trifluoromethyl)phenyl)-3,7-dihydro-1H-purine-2,6-dione]
100 to 500 nM | 100 to 500 nM | CC(O)Cn1c(=O)[nH]c(=O)c2c1nc(-c1ccc(Oc3ccc(OC(F)(F)F)cc3)c(OC(F)(F)F)c1)n2C (stereo not shown) [Compound 156, 3-(2-hydroxypropyl)-7-methyl-8-(3-(trifluoromethoxy)-4-(4-(trifluoromethoxy)phenoxy)phenyl)-3,7-dihydro-1H-purine-2,6-dione]
100 to 500 nM | 100 to 500 nM | Cn1c(-c2ccc(Oc3ccc(OC(F)(F)F)cc3F)cc2)nc2c1c(=O)[nH]c(=O)n2CC(O)C(F)(F)F (stereo not shown) [Compound 161, 8-(4-(2-fluoro-4-(trifluoromethoxy)phenoxy)phenyl)-7-methyl-3-(3,3,3-trifluoro-2-hydroxypropyl)-3,7-dihydro-1H-purine-2,6-dione]
> 5000 nM | 500 to 1000 nM | Cn1c(-c2ccc(Oc3ccc(OC(F)F)cc3)c(Cl)c2)nc2c1c(=O)[nH]c(=O)n2CC(O)C(F)(F)F (stereo not shown) [Compound 162, 8-(3-chloro-4-(4-(difluoromethoxy)phenoxy)phenyl)-7-methyl-3-(3,3,3-trifluoro-2-hydroxypropyl)-3,7-dihydro-1H-purine-2,6-dione]

Continued, compound first:

Compound | EC50 [1] | EC50 [2]
Cn1c(-c2ccc(Oc3ccc(Cl)cc3)c(Cl)c2)nc2c1c(=O)[nH]c(=O)n2CC(O)CF (stereo not shown) [Compound 147, 8-(3-chloro-4-(4-chlorophenoxy)phenyl)-3-(3-fluoro-2-hydroxypropyl)-7-methyl-3,7-dihydro-1H-purine-2,6-dione] | < 100 nM | < 100 nM
Cn1c(-c2ccc(Oc3ccc(OC(F)F)cc3)c(Cl)c2)nc2c1c(=O)[nH]c(=O)n2CC(O)CF (stereo not shown) [Compound 148, 8-(3-chloro-4-(4-(difluoromethoxy)phenoxy)phenyl)-3-(3-fluoro-2-hydroxypropyl)-7-methyl-3,7-dihydro-1H-purine-2,6-dione] | 100 to 500 nM | 100 to 500 nM
Cn1c(-c2ccc(Oc3ccc(OC(F)(F)F)cc3)c(F)c2)nc2c1c(=O)[nH]c(=O)n2CC(O)CF (stereo not shown) [Compound 149, 3-(3-fluoro-2-hydroxypropyl)-8-(3-fluoro-4-(4-(trifluoromethoxy)phenoxy)phenyl)-7-methyl-3,7-dihydro-1H-purine-2,6-dione] | 100 to 500 nM | 100 to 500 nM
CC(CO)Cn1c(=O)[nH]c(=O)c2c1nc(-c1ccc(Oc3ccc(Cl)cc3)c(Cl)c1)n2C (stereo not shown) [Compound 150, 8-(3-chloro-4-(4-chlorophenoxy)phenyl)-3-(3-hydroxy-2-methylpropyl)-7-methyl-3,7-dihydro-1H-purine-2,6-dione] | 100 to 500 nM | 500 to 1000 nM
CC(CO)Cn1c(=O)[nH]c(=O)c2c1nc(-c1ccc(Oc3ccc(OC(F)F)cc3)c(Cl)c1)n2C (stereo not shown) [Compound 151, 8-(3-chloro-4-(4-(difluoromethoxy)phenoxy)phenyl)-3-(3-hydroxy-2-methylpropyl)-7-methyl-3,7-dihydro-1H-purine-2,6-dione] | 100 to 500 nM | 100 to 500 nM
CC(CO)Cn1c(=O)[nH]c(=O)c2c1nc(-c1ccc(Oc3ccc(OC(F)(F)F)cc3)c(F)c1)n2C (stereo not shown) [Compound 152, 8-(3-fluoro-4-(4-(trifluoromethoxy)phenoxy)phenyl)-3-(3-hydroxy-2-methylpropyl)-7-methyl-3,7-dihydro-1H-purine-2,6-dione] | 100 to 500 nM | 100 to 500 nM
